{"source": "patent US20070202058A1", "about": "“Compositions for treating gastric reflux” (priority 2006, published 2007)", "key": {"[1]": {"test_system": "indomethacin induced gastric lesions", "assay": "Prevention of indomethacin induced gastric lesions (U.S. Pat. No. 3,988,466, Table 2)", "format": "in vivo", "conditions": "indomethacin induced gastric lesions (Table 2)", "experimental": "(§1) U.S. Pat. No. 3,988,466 reports that amino acids, particularly, L-glutamine are effective for the prevention or treatment of certain experimental ulcers, induced artificially by stress or pylorus ligation, or chemically by histamine, reserpine, cortisone, or inflammatory agents when given simultaneously. Further, such prevention only occurred when the concomitant dosage of the amino acid, L-glutamine, present was 2-5 g for a dose of aspirin of 0.3-1.0 g or for 25-50 mg of indomethacin, the required dose of L-glutamine was 2 g. […] Glutamine was ineffective in prevention of indomethacin induced gastric lesions at a dose of 15.6 mg/kg (Table 2) which is equivalent to 1.1 g for an human adult (70 kg weight). No use or indication for relief of gastric distress before or after lesion formation was observed, nor could it have been in the animal model used. No use or indication for relief of gastric lesions after lesion formation was disclosed. […] Of the 24 amino acids tried at the pharmaceutically unacceptable level of 750 mg/kg (calculated to be 52.5 g of the amino acid for a 70 kg human dose), all but DL-tryptophan, L-aspartic acid, L-tyrosine, L-cysteine and L-cystine gave more than 50% inhibition of ulcers. The pH of the amino acids was not a factor in ulcer prevention, showing that “the effect of amino acids is different from that of antacids” (Col 6, lines 27-31)"}, "[2]": {"test_system": "aspirin induced gastric lesions", "assay": "Prevention of aspirin induced gastric lesions (U.S. Pat. No. 3,988,466, Table 1)", "format": "in vivo", "conditions": "aspirin induced gastric lesions (Table 1)", "experimental": "as §1"}, "[3]": {"test_system": "indomethacin induced gastric lesions", "conditions": "cited from earlier work"}, "[4]": {"test_system": "aspirin induced gastric lesions", "conditions": "cited from earlier work"}, "[5]": {"test_system": "small bowel ulcers", "conditions": "rats, cited from earlier work; for ulcer healing: glutamine given in a guar gum"}, "[6]": {"test_system": "gastric reflux (heartburn)", "assay": "Example 9: patient with stress-related gastric reflux takes L-lysine confection", "format": "in vivo, human", "conditions": "for effect of the patient's earlier treatments on gastric reflux / heartburn: same patient, Nexium 40 mg twice a day"}}, "data": [{"smiles": "NC(=O)CC[C@H](N)C(=O)O", "note": "[Glutamine, L-glutamine]", "values": [{"measurement": "minimum effective dose calculated for a 70 kg human", "setting": "[1]", "result": 2.2, "unit": "g"}, {"measurement": "minimum effective dose calculated for a 70 kg human", "setting": "[2]", "result": 8.75, "unit": "g"}, {"measurement": "prevention of indomethacin induced gastric lesions", "setting": "[3]; dose of 15.6 mg/kg", "result": "ineffective"}, {"measurement": "minimum effective dose", "setting": "[3]; indomethacin induced gastric lesions (Table 2)", "result": 31.3, "unit": "mg/kg"}, {"measurement": "minimum effective dose", "setting": "[4]; aspirin induced gastric lesions (Table 1)", "result": 125, "unit": "mg/kg"}, {"measurement": "prevention of aspirin induced gastric lesions", "setting": "[4]; dose of 62.5 mg/kg", "result": "completely ineffective"}, {"measurement": "ulcer healing", "setting": "[5]", "result": "no effect"}]}, {"smiles": "N=C(N)NCCC[C@H](N)C(=O)O", "note": "[L-arginine]", "values": [{"measurement": "decrease in ulcer number", "setting": "[5]; L-arginine together with yeast RNA (antagonistic)", "result": 34, "unit": "%"}, {"measurement": "ulcer healing", "setting": "[5]", "result": "somewhat effective"}]}, {"smiles": "NCCCC[C@H](N)C(=O)O", "note": "[L-lysine]", "values": [{"measurement": "time to complete cessation of all symptoms", "setting": "[6]; 1 gram dose as a carrageenan confection", "result": "one"}, {"measurement": "relief of heartburn", "setting": "[6]; 1 gram dose as a carrageenan confection, patient with gastric reflux due to stress", "result": "immediate relief"}]}, {"smiles": "COc1ccc2nc([S@@+]([O-])Cc3ncc(C)c(OC)c3C)[nH]c2c1", "note": "[Nexium, esomeprazole, reference compound]", "values": [{"measurement": "effect of the patient's earlier treatments on gastric reflux / heartburn", "setting": "[6]", "result": "continued heartburn"}]}, {"smiles": "O=C([O-])[O-].[Ca+2]", "note": "[calcium carbonate antacids, calcium carbonate, reference compound]", "values": [{"measurement": "effect of the patient's earlier treatments on gastric reflux / heartburn", "setting": "[6]", "result": "ineffective"}]}]}
